Patent US11000033B2, “Ketone or oxime compound, and herbicide” (NISSAN CHEMICAL CORPORATION, priority 2014, dated 2021)

Tests used:
Format in all cases: in vivo
[1] = tested on: Echinochloa crus-galli var. crus-galli; test: Test Example 5: herbicidal effect by foliage application, plastic box (symbol H); settings: 320 g/ha, 3 weeks after application
In short: (§1)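 Sowing in sterilized diluvial soil, 14 days' greenhouse growth at 25° C. to 30° C., then uniform small-sprayer foliar application of aqueous emulsion dilution; plants scored three weeks afterwards.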

[2] = tested on: Alopecurus myosuroides; test: Test Example 5: herbicidal effect by foliage application, plastic box (symbol J); settings: 320 g/ha, 3 weeks after application
In short: as §1

[3] = tested on: Lolium multiflorum Lam.; test: Test Example 4: herbicidal effect by soil treatment (symbol K); settings: 320 g/ha
In short: (§2)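 Seeds were sown in sterilized diluvial soil, covered with about 1.5 cm of soil, and the soil surface was sprayed with a water-diluted emulsion of the compound at a predetermined rate. Plants grew in a greenhouse at 25° C. to 30° C.; effects were scored visually 3 weeks after application.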

[4] = tested on: wheat; test: Test Example 4: effect on crop by soil treatment (symbol e); settings: 320 g/ha
In short: (§3)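 Greenhouse culture at 25° C. to 30° C. followed sowing of seed in spots on sterilized diluvial soil with a soil cover close to 1.5 cm thick.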

[5] = tested on: Stellaria media; test: Test Example 4: herbicidal effect by soil treatment (symbol P); settings: 320 g/ha
In short: as §2

[6] = tested on: Digitaria ciliaris; test: Test Example 4: herbicidal effect by soil treatment (symbol F); settings: 320 g/ha
In short: as §2

[7] = tested on: Echinochloa oryzacola Vasing.; test: Test Example 2: herbicidal activity, application during weed generation in submerged conditions (symbol A); settings: Table 23; application herbicide amount 320 g/ha; grade 0-5 by criteria of Test Example 1
In short: (§4)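 Flooded-soil post-emergence test: emulsion of compound, water-diluted to target rate, applied to paddy water surface at 1–2 leaf stage of mixed-sown weeds (alluvial soil, 4 cm water, 25–30° C. greenhouse); visual rating 3 weeks after application.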

[8] = tested on: rice plant; test: Test Example 5: effect on crop by foliage application, plastic box (symbol b); settings: 320 g/ha, 3 weeks after application
In short: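 Diluvial soil, sterilized and boxed (21 × 13 × 7 cm), received spot-sown seed covered by about 1.5 cm soil; plants were then greenhouse-grown at 25–30° C.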

[9] = tested on: Scirpus juncoides; test: Test Example 2: herbicidal activity, application during weed generation in submerged conditions (symbol B); settings: Table 23; application herbicide amount 320 g/ha; grade 0-5 by criteria of Test Example 1
In short: as §4

[10] = tested on: rice; test: Test Example 4: effect on crop by soil treatment (symbol b); settings: 320 g/ha
In short: as §3

[11] = tested on: Leptochloa chinensis; test: Test Example 3: herbicidal effect by foliage application, Wagner pot (symbol D); settings: application herbicide amount 320 g/ha
In short: (§5)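 Rating at 3 weeks post-spray, by defined criteria. Treatment: emulsion diluted with water to a predetermined amount, applied evenly to foliage of 14-day-old plants raised in alluvial soil flooded 0.1–0.5 cm deep at 25–30 °C, rice co-sown.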

[12] = tested on: Monochoria vaginalis; test: Test Example 2: herbicidal activity, application during weed generation in submerged conditions (symbol C); settings: Table 23; application herbicide amount 320 g/ha; grade 0-5 by criteria of Test Example 1
In short: as §4

[13] = tested on: Alopecurus myosuroides; test: Test Example 4: herbicidal effect by soil treatment (symbol J); settings: 320 g/ha
In short: as §2

[14] = tested on: Setaria viridis; test: Test Example 4: herbicidal effect by soil treatment (symbol G); settings: 320 g/ha
In short: as §2

[15] = tested on: Chenopodium album; test: Test Example 5: herbicidal effect by foliage application, plastic box (symbol O); settings: 320 g/ha, 3 weeks after application
In short: as §1

[16] = tested on: Avena fatua; test: Test Example 4: herbicidal effect by soil treatment (symbol I); settings: 320 g/ha
In short: as §2

[17] = tested on: Amaranthus retroflexus; test: Test Example 5: herbicidal effect by foliage application, plastic box (symbol N); settings: 320 g/ha, 3 weeks after application
In short: as §1

[18] = tested on: Stellaria media; test: Test Example 5: herbicidal effect by foliage application, plastic box (symbol P); settings: 320 g/ha, 3 weeks after application
In short: as §1

[19] = tested on: Echinochloa crus-galli var. crus-galli; test: Test Example 3: herbicidal effect by foliage application, Wagner pot (symbol H); settings: application herbicide amount 320 g/ha
In short: as §5

[20] = tested on: Veronica persica; test: Test Example 4: herbicidal effect by soil treatment (symbol R); settings: 320 g/ha
In short: as §2

CC(CC1CC(O)=C(c2c(C)cc(C)cc2C)C1=O)=NOCC1OCCO1 (centres unmarked) [1-111]
H: Echinochloa crus-galli var. crus-galli, herbicidal effect (criteria 0-5) [1]: 5 (Herbicidal ratio of 90% or more (almost completely withered))
J: Alopecurus myosuroides, herbicidal effect (criteria 0-5) [2]: 5 (Herbicidal ratio of 90% or more (almost completely withered))
K: Lolium multiflorum Lam., herbicidal effect grade [3]: 5 (Herbicidal ratio of 90% or more (almost completely withered))
e: wheat, effect grade on crop [4]: 5 (Herbicidal ratio of 90% or more (almost completely withered))
P: Stellaria media, herbicidal effect grade [5]: 0 (Herbicidal ratio of 5% or lower (almost no effect))
F: Digitaria ciliaris, herbicidal effect grade [6]: 5 (Herbicidal ratio of 90% or more (almost completely withered))
Herbicidal effect grade, A: Echinochloa oryzacola Vasing. [7]: 5 (Herbicidal ratio of 90% or more (almost completely withered))
b: directly sowed rice plant, effect on crop (criteria 0-5) [8]: 5 (Herbicidal ratio of 90% or more (almost completely withered))
Herbicidal effect grade, B: Scirpus juncoides [9]: 1 (Herbicidal ratio of 5% or higher and lower than 20%)
b: directly sowed rice plant, effect grade on crop [10]: 5 (Herbicidal ratio of 90% or more (almost completely withered))
herbicidal effect on D (Leptochloa chinensis), grade 0-5 [11]: 5 (Herbicidal ratio of 90% or more (almost completely withered))
Herbicidal effect grade, C: Monochoria vaginalis [12]: 0 (Herbicidal ratio of 5% or lower (almost no effect))
J: Alopecurus myosuroides, herbicidal effect grade [13]: 5 (Herbicidal ratio of 90% or more (almost completely withered))
G: Setaria viridis, herbicidal effect grade [14]: 5 (Herbicidal ratio of 90% or more (almost completely withered))
O: Chenopodium album, herbicidal effect (criteria 0-5) [15]: 1 (Herbicidal ratio of 5% or higher and lower than 20%)
I: Avena fatua, herbicidal effect grade [16]: 3 (Herbicidal ratio of 40% or higher and lower than 70%)
N: Amaranthus retroflexus, herbicidal effect (criteria 0-5) [17]: 0 (Herbicidal ratio of 5% or lower (almost no effect))
P: Stellaria media, herbicidal effect (criteria 0-5) [18]: 3 (Herbicidal ratio of 40% or higher and lower than 70%)
herbicidal effect on H (Echinochloa crus-galli var. crus-galli), grade 0-5 [19]: 5 (Herbicidal ratio of 90% or more (almost completely withered))
R: Veronica persica, herbicidal effect grade [20]: 0 (Herbicidal ratio of 5% or lower (almost no effect))
